Tests used:
Type in all cases: cell-based
[1] = system: MDCKII cells stably expressing human NPC1L1 (hNPC1L1/MDCKII); test: Cytotoxicity assay (MTT cell proliferation assay), hNPC1L1/MDCKII cells; conditions: 72 h incubation, read-out: hNPC1L1MDCKII LC50
Experimental: (§1) The cells were grown at 37° C. in a humidified 5% CO2 incubator. Stable transfection of MDCKII cells with human NPC1L1 protein was performed using the Lipofectamine LTX (Invitrogen, USA) according to the manufecturer's protocol. Selection with 1000 μg/mL G418 (Sigma-Aldrich, Germany) was started 2 days after transfection. The concentration of G418 was decreased to 500 μg/mL after 14 days. Transfected cells were maintained in DMEM (Dulbecco's Modified Eagle Medium) containing 100 units/mL penicillin and 100 μg/mL streptomycin supplemented with 10% FCS and 500 μg/mL G418.
(§2) For the cytotoxicity determination, MDCKII, hNPC1L1/MDCKII and HepG2 cells were seeded in 96-well microtiter plates on day 0 at the density of 3000 cells/well. […] The compound cytotoxicity was assessed on day 4 performing the MTT cell proliferation assay (Sigma-Aldrich, Germany) which detects mitochondrial dehydrogenase activity in viable cells. (Mosmann, T. J. Immunol. Methods 1983, 65, 55.) The results are expressed as LC50 and the values for each compound were calculated from dose-response curves using linear regression analysis. Each concentration was tested in quadruplicate in three independent experiments (Table 1).

[2] = as above; conditions: dog, MDCKII cells stably expressing human NPC1L1 (hNPC1L1/MDCKII), 72 h incubation, read-out: hNPC1L1MDCKII LC50
Experimental: as §1, §2

[3] = Cytotoxicity assay (MTT cell proliferation assay), HepG2 cells; conditions: human, 72 h incubation, read-out: HepG2 LC50
Experimental: as §1, §2

[4] = Cytotoxicity assay (MTT cell proliferation assay), MDCKII cells; conditions: dog, 72 h incubation, read-out: MDCKII LC50
Experimental: as §1, §2

| Compound | CC50 [1] [µM] | CC50 at 72 h [2] [µM] | CC50 at 72 h [3] [µM] | CC50 at 72 h [4] [µM] |
| --- | --- | --- | --- | --- |
| O=C(/C=C/c1ccc(F)cc1)N[C@H]1C(=O)N(c2ccc(F)cc2)[C@@H]1c1ccc(O)cc1 [Compound 3, (E)-1-[(3R,4R)-1-(4-fluorophenyl)-4-(4-hydroxyphenyl)-2-oxo-3-azetidinylamino]-3-(4-fluorophenyl)-2-propen-1-one] | 63.3 | – | – | – |
| O=C1[C@H](NC[C@H](O)c2ccc(F)cc2)[C@@H](c2ccc(O)cc2)N1c1ccc(F)cc1 [Compound 8, (3R,4R)-3-[(2R)-2-(4-fluorophenyl)-2-hydroxyethylamino]-1-(4-fluorophenyl)-4-(4-hydroxyphenyl)azetidin-2-one] | – | > 100 | > 100 | > 100 |
| O=C1[C@H](NCC(O)c2ccc(F)cc2)[C@@H](c2ccc(O)cc2)N1c1ccc(F)cc1 (mixture of isomers) [8/9-70/30, (3R,4R)-3-[(2R/S)-2-(4-fluorophenyl)-2-hydroxyethylamino]-1-(4-fluorophenyl)-4-(4-hydroxyphenyl)azetidin-2-one] | – | > 100 | > 100 | > 100 |
| O=C1[C@H](NC[C@@H](O)c2ccc(F)cc2)[C@@H](c2ccc(O)cc2)N1c1ccc(F)cc1 [Compound 9, (3R,4R)-3-[(2S)-2-(4-fluorophenyl)-2-hydroxyethylamino]-1-(4-fluorophenyl)-4-(4-hydroxyphenyl)azetidin-2-one] | – | > 100 | > 100 | > 100 |

Reference: US9926269B2, “Beta-lactam cholesterol absorption inhibitors” (Rudjer Boskovic Institute, priority 2013, dated 2018)
